# Reference: BindingDB's records for doi:10.1016/j.ejmech.2014.11.002 (Universitat Rovira I Virgili, 2015)
# Assays:
# [1] = target: Cytosolic beta-glucosidase (Bos taurus); assay: Inhibition of bovine liver beta-glucosidase at pH 5.5 incubated for 10 to 30 mins using beta-D-glycopyranoside substrate by spectrophotometry
# [2] = target: Cytosolic beta-glucosidase (Bos taurus); assay: Inhibition of bovine liver beta-glucosidase at pH 7.3 incubated for 10 to 30 mins using beta-D-glycopyranoside substrate by spectrophotometry
SMILES,Ki [1] [µM],Ki [2] [µM]
COC(=O)CCCCCCCCCCCCCCCSC1=N[C@H]2O[C@H](CO)[C@@H](O)[C@H](O)[C@H]2O1,45,26.4
OC[C@H]1O[C@@H]2N=C(SCCCCCCCCCCCCCCCCF)O[C@@H]2[C@@H](O)[C@@H]1O,66,11.1
